Measured values as given in ChEMBL document CHEMBL1152592, “Design, synthesis and biological evaluations of novel 7-[3-(1-aminocycloalkyl)pyrrolidin-1-yl]-6-desfluoro-8-methoxyquinolones with potent antibacterial activity against multi-drug resistant Gram-positive bacteria” (Bioorg Med Chem, 2009).
Converted amounts (≈) assume the structure as drawn.

Tests used:
[1] = AUC (0 to 6 hrs) in Crj:CD rat kidney at 20 mg/kg, iv; format: ADME, organism-based; set-up: time < 6 hr, dose 20 mg/kg, route intravenous
[2] = AUC (0 to 6 hrs) in Crj:CD rat lung at 20 mg/kg, iv; format: ADME, organism-based; set-up: time < 6 hr, dose 20 mg/kg, route intravenous
[3] = Ratio of AUC (0 to 6 hrs) liver to serum in Crj:CD rat […] at 20 mg/kg, iv; format: ADME, organism-based; set-up: dose 20 mg/kg, route intravenous
[4] = Ratio of AUC (0 to 6 hrs) kidney to serum in Crj:CD rat […] at 20 mg/kg, iv; format: ADME, organism-based; set-up: dose 20 mg/kg, route intravenous
[5] = Ratio of AUC (0 to 6 hrs) lung to serum in Crj:CD rat lung at 20 mg/kg, iv; format: ADME, organism-based; set-up: dose 20 mg/kg, route intravenous
[6] = Cmax in cynomolgus monkey serum at 20 mg/kg, po; format: ADME, organism-based, Macaca fascicularis; set-up: dose 20 mg/kg, route oral
[7] = Cmax in cynomolgus monkey serum at 20 mg/kg, iv; format: ADME, organism-based, Macaca fascicularis; set-up: dose 20 mg/kg, route intravenous
[8] = Half life in cynomolgus monkey serum at 20 mg/kg, po; format: ADME, organism-based, Macaca fascicularis; set-up: dose 20 mg/kg, route oral
[9] = Half life in cynomolgus monkey serum at 20 mg/kg, iv; format: ADME, organism-based, Macaca fascicularis; set-up: dose 20 mg/kg, route intravenous
[10] = AUC (0 to 6 hrs) in cynomolgus monkey serum at 20 mg/kg, po; format: ADME, organism-based, Macaca fascicularis, Plasma; set-up: time < 6 hr, dose 20 mg/kg, route oral
[11] = AUC (0 to 6 hrs) in cynomolgus monkey serum at 20 mg/kg, iv; format: ADME, organism-based, Macaca fascicularis, Plasma; set-up: time < 6 hr, dose 20 mg/kg, route intravenous
[12] = Oral bioavailability in cynomolgus monkey serum at 20 mg/kg; format: ADME, organism-based, Macaca fascicularis
[13] = system: Staphylococcus aureus; test: Antibacterial activity against Staphylococcus aureus FDA 209-P after 18 hrs by twofold microbroth dilution method; format: functional
[14] = system: Staphylococcus epidermidis; test: Antibacterial activity against Staphylococcus epidermidis 56500 after 18 hrs by twofold microbroth dilution method; format: functional; conditions: Staphylococcus epidermidis, 56500, 18 h
[15] = system: Streptococcus pneumoniae; test: Antibacterial activity against Streptococcus pneumoniae J-24 after 18 hrs by twofold microbroth dilution method; format: functional; conditions: J-24, 18 h
[16] = system: Streptococcus pyogenes; test: Antibacterial activity against Streptococcus pyogenes G-36 after 18 hrs by twofold microbroth dilution method; format: functional; conditions: G-36, 18 h
[17] = system: Streptococcus mitis; test: Antibacterial activity against Streptococcus mitis IID685 after 18 hrs by twofold microbroth dilution method; format: functional; conditions: IID685, 18 h
[18] = system: Enterococcus faecalis; test: Antibacterial activity against Enterococcus faecalis ATCC 19433 after 18 hrs by twofold microbroth dilution method; format: functional; conditions: ATCC19433, 18 h
[19] = system: Escherichia coli; test: Antibacterial activity against Escherichia coli NIHJ after 18 hrs by twofold microbroth dilution method; format: functional
[20] = system: Klebsiella pneumoniae; test: Antibacterial activity against Klebsiella pneumoniae type 2 after 18 hrs by twofold microbroth dilution method; format: functional; conditions: type 2, 18 h
[21] = system: Pseudomonas aeruginosa; test: Antibacterial activity against Pseudomonas aeruginosa PAO1 after 18 hrs by twofold microbroth dilution method; format: functional; conditions: PAO1, 18 h
[22] = system: Mus musculus; test: Toxicity in Slc:ddY mouse at 100 mg/kg, iv; format: organism-based; set-up: dose 100 mg/kg, route intravenous; conditions: in vivo
[23] = system: Mus musculus; test: Toxicity in Slc:ddY mouse assessed as micronucleated reticulocyte in blood at 150 mg/kg, iv after 48 hrs of treatment by fluorescence microscopy; format: organism-based; set-up: dose 150 mg/kg, route intravenous; conditions: in vivo
[24] = Aqueous […] of the compound; format: physicochemical; conditions: aqueous (not further specified)
[25] = system: Staphylococcus aureus; test: Antibacterial activity against levofloxacin, methicillin-resistant Staphylococcus aureus after 18 hrs by twofold microbroth dilution method; format: functional
[26] = system: Staphylococcus aureus; test: Antibacterial activity against ciprofloxacin, methicillin-resistant Staphylococcus aureus after 18 hrs by twofold microbroth dilution method; format: functional
[27] = system: Streptococcus pneumoniae; test: Antibacterial activity against penicillin-intermediate resistant Streptococcus pneumoniae after 18 hrs by twofold microbroth dilution method; format: functional
[28] = system: Enterococcus faecalis; test: Antibacterial activity against vancomycin-resistant Enterococcus faecalis after 18 hrs by twofold microbroth dilution method; format: functional
[29] = system: Enterococcus faecium; test: Antibacterial activity against vancomycin-resistant Enterococcus faecium after 18 hrs by twofold microbroth dilution method; format: functional
[30] = Inhibition of Staphylococcus aureus wild type DNA topoisomerase 4
[31] = Inhibition of Staphylococcus aureus DNA topoisomerase 4 Ser80Phe mutant
[32] = system: Staphylococcus aureus; test: Selectivity ratio of IC50 for Staphylococcus aureus DNA topoisomerase 4 Ser80Phe mutant to IC50 for Staphylococcus aureus wild type DNA topoisomerase 4
[33] = biological target: DNA gyrase (Staphylococcus aureus, UniProt P0A0K8+P20831); test: Inhibition of Staphylococcus aureus wild type DNA gyrase; format: protein-complex assay
[34] = biological target: DNA gyrase subunit A (Staphylococcus aureus, UniProt P20831, S84L); test: Inhibition of Staphylococcus aureus DNA gyrase Ser84Leu mutant
[35] = system: Staphylococcus aureus; test: Selectivity ratio of IC50 for Staphylococcus aureus DNA gyrase Ser84Leu mutant to IC50 for Staphylococcus aureus wild type DNA gyrase
[36] = Cmax in Crj:CD rat serum at 20 mg/kg, po; format: ADME, organism-based; set-up: dose 20 mg/kg, route oral
[37] = Half life in Crj:CD rat serum at 20 mg/kg, po; format: ADME, organism-based; set-up: dose 20 mg/kg, route oral
[38] = AUC (0 to 6hrs) in Crj:CD rat serum at 20 mg/kg, po; format: ADME, organism-based; set-up: time < 6 hr, dose 20 mg/kg, route oral
[39] = Oral bioavailability in Crj:CD rat serum at 20 mg/kg; format: ADME, organism-based
[40] = Cmin in Crj:CD rat serum at 20 mg/kg, iv after 5 mins; format: ADME, organism-based; set-up: dose 20 mg/kg, route intravenous; conditions: read-out: Cmin
[41] = Cmin in Crj:CD rat liver at 20 mg/kg, iv after 5 mins; format: ADME, organism-based; set-up: dose 20 mg/kg, route intravenous; conditions: read-out: Cmin
[42] = Cmin in Crj:CD rat kidney at 20 mg/kg, iv after 5 mins; format: ADME, organism-based; set-up: dose 20 mg/kg, route intravenous; conditions: read-out: Cmin
[43] = Cmin in Crj:CD rat lung at 20 mg/kg, iv after 5 mins; format: ADME, organism-based; set-up: dose 20 mg/kg, route intravenous; conditions: read-out: Cmin
[44] = Half life in Crj:CD rat serum at 20 mg/kg, iv; format: ADME, organism-based; set-up: dose 20 mg/kg, route intravenous
[45] = Half life in Crj:CD rat liver at 20 mg/kg, iv; format: ADME, organism-based; set-up: dose 20 mg/kg, route intravenous
[46] = Half life in Crj:CD rat kidney at 20 mg/kg, iv; format: ADME, organism-based; set-up: dose 20 mg/kg, route intravenous
[47] = Half life in Crj:CD rat lung at 20 mg/kg, iv; format: ADME, organism-based; set-up: dose 20 mg/kg, route intravenous
[48] = AUC (0 to 6 hrs) in Crj:CD rat serum at 20 mg/kg, iv; format: ADME, organism-based; set-up: time < 6 hr, dose 20 mg/kg, route intravenous
[49] = AUC (0 to 6 hrs) in Crj:CD rat liver at 20 mg/kg, iv; format: ADME, organism-based; set-up: time < 6 hr, dose 20 mg/kg, route intravenous
[50] = system: Mus musculus; test: Toxicity in Slc:ddY mouse at 150 mg/kg, iv; format: organism-based; set-up: dose 150 mg/kg, route intravenous; conditions: in vivo
[51] = system: Mus musculus; test: Toxicity in Slc:ddY mouse at 50 mg/kg, iv; format: organism-based; set-up: dose 50 mg/kg, route intravenous; conditions: in vivo
[52] = system: Mus musculus; test: Toxicity in Slc:ddY mouse assessed as micronucleated reticulocyte in blood at 100 mg/kg, iv after 48 hrs of treatment by fluorescence microscopy; format: organism-based; set-up: dose 100 mg/kg, route intravenous; conditions: in vivo

SMILES: COc1c(N2CC[C@@H](C3(N)CC3)C2)ccc2c(=O)c(C(=O)O)cn([C@@H]3C[C@@H]3F)c12
- AUC(0-t) at 6 h [1]: 64400 ng·h/mL
- AUC(0-t) at 6 h [2]: 45500 ng·h/mL
- Kp [3]: 4.6
- Kp [4]: 4.4
- Kp [5]: 3.1
- Cmax [6]: 3700 ng/mL
- Cmax [7]: 12300 ng/mL
- half-life [8]: 6 h
- half-life [9]: 4.4 h
- AUC(0-t) at 6 h [10]: 37500 ng·h/mL
- AUC(0-t) at 6 h [11]: 64400 ng·h/mL
- bioavailability [12]: 58.2%
- MIC [13]: ≤ 0.003 µg/mL
- MIC [14]: 0.006 µg/mL (≈ 0.0149 µM)
- MIC [15]: 0.006 µg/mL (≈ 0.0149 µM)
- MIC [16]: 0.006 µg/mL (≈ 0.0149 µM)
- MIC [17]: 0.003 µg/mL (≈ 0.00747 µM)
- MIC [18]: 0.025 µg/mL (≈ 0.0623 µM)
- MIC [19]: ≤ 0.003 µg/mL
- MIC [20]: 0.05 µg/mL (≈ 0.125 µM)
- MIC [21]: 0.39 µg/mL (≈ 0.972 µM)
- Activity [22]: Non-toxic
- Activity [23]: Toxic
- solubility [24]: 480 µg/mL (≈ 1200 µM)
- MIC50 [25]: 0.12 µg/mL (≈ 0.299 µM)
- MIC80 [25]: 1 µg/mL (≈ 2.49 µM)
- MIC90 [25]: 1 µg/mL (≈ 2.49 µM)
- MIC50 [26]: 0.06 µg/mL (≈ 0.149 µM)
- MIC90 [26]: 0.5 µg/mL (≈ 1.25 µM)
- MIC50 [27]: 0.03 µg/mL (≈ 0.0747 µM)
- MIC90 [27]: 0.03 µg/mL (≈ 0.0747 µM)
- MIC50 [28]: 0.25 µg/mL (≈ 0.623 µM)
- MIC90 [28]: 0.5 µg/mL (≈ 1.25 µM)
- MIC50 [29]: 0.25 µg/mL (≈ 0.623 µM)
- MIC90 [29]: 2 µg/mL (≈ 4.98 µM)
- IC50 [30]: 0.309 µg/mL (≈ 0.77 µM)
- IC50 [31]: 1.76 µg/mL (≈ 4.38 µM)
- Ratio IC50 [32]: 5.7
- IC50 [33]: 2.08 µM
- IC50 [34]: 19.5 µM
- Ratio IC50 [35]: 9.35
- Cmax [36]: 6700 ng/mL
- half-life [37]: 1.3 h
- AUC(0-t) at 6 h [38]: 9800 ng·h/mL
- bioavailability [39]: 67.4%
- concentration at 5 min [40]: 11000 ng/mL
- concentration at 5 min [41]: 48500 ng/mL
- concentration at 5 min [42]: 47200 ng/mL
- concentration at 5 min [43]: 32400 ng/mL
- half-life [44]: 1.2 h
- half-life [45]: 1.1 h
- half-life [46]: 1.4 h
- half-life [47]: 1.2 h
- AUC(0-t) at 6 h [48]: 14500 ng·h/mL
- AUC(0-t) at 6 h [49]: 66100 ng·h/mL

SMILES: COc1c(N2CC[C@@H](C3(N)CCC3)C2)ccc2c(=O)c(C(=O)O)cn([C@@H]3C[C@@H]3F)c12
- MIC [13]: ≤ 0.003 µg/mL
- MIC [14]: 0.012 µg/mL (≈ 0.0289 µM)
- MIC [15]: 0.006 µg/mL (≈ 0.0144 µM)
- MIC [16]: 0.006 µg/mL (≈ 0.0144 µM)
- MIC [17]: 0.003 µg/mL (≈ 0.00722 µM)
- MIC [18]: 0.05 µg/mL (≈ 0.12 µM)
- MIC [19]: 0.012 µg/mL (≈ 0.0289 µM)
- MIC [20]: 0.05 µg/mL (≈ 0.12 µM)
- MIC [21]: 0.39 µg/mL (≈ 0.939 µM)
- Activity [50]: Toxic
- Activity [22]: Non-toxic
- Activity [51]: Non-toxic
- Activity [52]: Toxic
- solubility [24]: 604 µg/mL (≈ 1450 µM)
